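96-well plates; 48 h exposure; 5 concentrations. Endpoints by linear interpolation between flanking doses. Not reached: highest tested concentration assigned. TGI denotes the concentration required for complete inhibition of growth.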
Legend:
Test in all cases: NCI anticancer screen, dose series, 48 h
[1] = system: 786-0 renal
[2] = system: A498 renal
[3] = system: ACHN renal
[4] = system: CCRF-CEM leukemia
[5] = system: COLO 205 colon
[6] = system: DLD-1 colon
[7] = system: EKVX NSCLC
[8] = system: HCC-2998 colon
[9] = system: HCT-116 colon
[10] = system: HCT-15 colon
[11] = system: HL-60(TB) leukemia
[12] = system: HOP-18 NSCLC
[13] = system: HOP-62 NSCLC
[14] = system: HOP-92 NSCLC
[15] = system: IGROV1 ovarian
[16] = system: K-562 leukemia
[17] = system: KM12 colon
[18] = system: KM20L2 colon
[19] = system: LOX IMVI melanoma
[20] = system: LXFL 529 NSCLC
[21] = system: M14 melanoma
[22] = system: M19-MEL melanoma
[23] = system: MALME-3M melanoma
[24] = system: NCI-H226 lung
[25] = system: NCI-H522 lung
[26] = system: OVCAR-5 ovarian
[27] = system: OVCAR-8 ovarian
[28] = system: RPMI-8226 leukemia
[29] = system: RXF 393 renal
[30] = system: RXF-631 renal
[31] = system: SF-268 CNS
[32] = system: SF-295 CNS
[33] = system: SF-539 CNS
[34] = system: SK-MEL-2 melanoma
[35] = system: SK-MEL-28 melanoma
[36] = system: SK-MEL-5 melanoma
[37] = system: SK-OV-3 ovarian
[38] = system: SN12C renal
[39] = system: SNB-19 CNS
[40] = system: SNB-78 CNS
[41] = system: SW-620 colon
[42] = system: TK-10 renal
[43] = system: UACC-257 melanoma
[44] = system: UACC-62 melanoma
[45] = system: UO-31 renal
[46] = system: A549 NSCLC
[47] = system: DMS 114 small cell lung
[48] = system: DMS 273 small cell lung
[49] = system: HT29 colon
[50] = system: NCI-H23 lung
[51] = system: NCI-H460 lung
[52] = system: OVCAR-4 ovarian
[53] = system: SNB-75 CNS
[54] = system: SR leukemia
[55] = system: U251 CNS
[56] = system: XF 498 CNS
[57] = system: CAKI-1 renal
[58] = system: MOLT-4 leukemia
[59] = system: OVCAR-3 ovarian

CCN(CC)C(=S)S
TGI [1]: > 100 µM | TGI [2]: > 100 µM | TGI [3]: > 100 µM | TGI [4]: 9.46 µM | TGI [5]: > 100 µM | TGI [6]: > 100 µM | TGI [7]: > 100 µM | TGI [8]: > 100 µM | TGI [9]: 19.7 µM | TGI [10]: > 100 µM | TGI [11]: 33.3 µM | TGI [12]: > 100 µM | TGI [13]: > 100 µM | TGI [14]: > 100 µM | TGI [15]: > 100 µM | TGI [16]: 30.1 µM | TGI [17]: > 100 µM | TGI [18]: > 100 µM | TGI [19]: > 100 µM | TGI [20]: > 100 µM | TGI [21]: > 59.8 µM | TGI [22]: > 37.5 µM | TGI [23]: 60.4 µM | TGI [24]: > 100 µM | TGI [25]: 0.362 µM | TGI [26]: > 100 µM | TGI [27]: > 100 µM | TGI [28]: > 100 µM | TGI [29]: > 100 µM | TGI [30]: > 67.4 µM | TGI [31]: > 100 µM | TGI [32]: > 100 µM | TGI [33]: > 100 µM | TGI [34]: > 100 µM | TGI [35]: > 84.6 µM | TGI [36]: > 43.6 µM | TGI [37]: > 100 µM | TGI [38]: > 100 µM | TGI [39]: > 100 µM | TGI [40]: > 100 µM | TGI [41]: > 100 µM | TGI [42]: > 100 µM | TGI [43]: 65.1 µM | TGI [44]: 12.3 µM | TGI [45]: > 100 µM

O[C@]12c3ccccc3C1CCCCC2N1CCOCC1 (stereo partly drawn)
TGI [1]: > 100 µM | TGI [46]: > 100 µM | TGI [3]: > 100 µM | TGI [4]: > 100 µM | TGI [5]: > 100 µM | TGI [47]: > 100 µM | TGI [48]: > 100 µM | TGI [7]: > 100 µM | TGI [9]: > 100 µM | TGI [10]: > 100 µM | TGI [11]: > 100 µM | TGI [12]: > 100 µM | TGI [13]: > 100 µM | TGI [49]: > 100 µM | TGI [16]: > 100 µM | TGI [17]: > 100 µM | TGI [18]: > 100 µM | TGI [19]: > 100 µM | TGI [20]: > 100 µM | TGI [21]: > 100 µM | TGI [22]: > 100 µM | TGI [23]: > 100 µM | TGI [24]: > 100 µM | TGI [50]: > 100 µM | TGI [51]: > 100 µM | TGI [25]: > 100 µM | TGI [52]: > 100 µM | TGI [27]: > 100 µM | TGI [28]: > 100 µM | TGI [29]: > 100 µM | TGI [31]: > 100 µM | TGI [32]: > 100 µM | TGI [34]: > 100 µM | TGI [35]: > 100 µM | TGI [36]: > 100 µM | TGI [37]: > 100 µM | TGI [38]: > 100 µM | TGI [39]: > 100 µM | TGI [53]: > 100 µM | TGI [40]: > 100 µM | TGI [54]: > 100 µM | TGI [41]: > 100 µM | TGI [42]: > 100 µM | TGI [55]: > 100 µM | TGI [43]: > 100 µM | TGI [44]: > 100 µM | TGI [45]: > 100 µM | TGI [56]: > 100 µM

CCN1C(=O)N2C(OC)c3ccccc3C(Br)C2(OC)C1=O (stereo not drawn)
TGI [2]: > 100 µM | TGI [57]: > 100 µM | TGI [4]: > 100 µM | TGI [5]: > 100 µM | TGI [6]: > 100 µM | TGI [47]: > 100 µM | TGI [48]: > 100 µM | TGI [8]: > 100 µM | TGI [10]: > 100 µM | TGI [11]: > 100 µM | TGI [13]: > 100 µM | TGI [15]: > 100 µM | TGI [16]: > 100 µM | TGI [17]: > 100 µM | TGI [18]: > 100 µM | TGI [19]: > 100 µM | TGI [20]: > 100 µM | TGI [21]: > 100 µM | TGI [22]: > 100 µM | TGI [23]: > 100 µM | TGI [58]: > 100 µM | TGI [24]: > 100 µM | TGI [50]: > 100 µM | TGI [51]: > 100 µM | TGI [25]: > 100 µM | TGI [59]: > 100 µM | TGI [52]: > 100 µM | TGI [26]: > 100 µM | TGI [27]: > 100 µM | TGI [28]: > 100 µM | TGI [30]: > 100 µM | TGI [32]: > 100 µM | TGI [34]: > 100 µM | TGI [35]: > 100 µM | TGI [36]: > 100 µM | TGI [37]: > 100 µM | TGI [38]: > 100 µM | TGI [39]: > 100 µM | TGI [53]: > 100 µM | TGI [54]: > 100 µM | TGI [41]: > 100 µM | TGI [42]: > 100 µM | TGI [55]: > 100 µM | TGI [44]: > 100 µM | TGI [45]: > 100 µM

CC1CCN(c2cc(-c3cc4ccccc4o3)oc(=O)c2C#N)CC1
TGI [2]: > 100 µM | TGI [46]: > 100 µM | TGI [3]: > 100 µM | TGI [57]: > 100 µM | TGI [4]: > 100 µM | TGI [5]: > 100 µM | TGI [6]: > 100 µM | TGI [47]: > 100 µM | TGI [48]: > 100 µM | TGI [7]: > 100 µM | TGI [8]: > 100 µM | TGI [9]: > 100 µM | TGI [10]: > 100 µM | TGI [11]: > 100 µM | TGI [12]: > 100 µM | TGI [14]: 79 µM | TGI [49]: > 100 µM | TGI [15]: > 100 µM | TGI [16]: > 100 µM | TGI [17]: > 100 µM | TGI [18]: > 100 µM | TGI [19]: > 100 µM | TGI [20]: > 100 µM | TGI [21]: > 100 µM | TGI [23]: > 100 µM | TGI [58]: > 100 µM | TGI [24]: > 100 µM | TGI [50]: > 100 µM | TGI [51]: > 100 µM | TGI [52]: > 100 µM | TGI [26]: > 100 µM | TGI [27]: > 100 µM | TGI [28]: > 100 µM | TGI [29]: > 100 µM | TGI [31]: > 100 µM | TGI [32]: > 100 µM | TGI [33]: > 100 µM | TGI [34]: > 100 µM | TGI [35]: > 100 µM | TGI [36]: > 100 µM | TGI [38]: > 100 µM | TGI [39]: > 100 µM | TGI [53]: > 100 µM | TGI [54]: > 100 µM | TGI [41]: > 100 µM | TGI [42]: > 100 µM | TGI [55]: > 100 µM | TGI [43]: > 100 µM | TGI [45]: > 100 µM | TGI [56]: > 100 µM
